Results as given in patent US20130071892A1, “PROCESS FOR PRODUCTION OF POLYHYDROXYALKANOIC ACID USING GENETICALLY MODIFIED MICROORGANISM HAVING ENOYL-CoA HYDRATASE GENE INTRODUCED THEREIN” (TOKYO INSTITUTE OF TECHNOLOGY, priority 2010, published 2013).

Assays:
[1] = target: C. necator R form-specific enoyl-CoA hydratase PhaJ2 (phaJ2 gene, H16_B0397, SEQ ID NO: 3), wild type, recombinant N-terminal His tag (Cupriavidus necator, UniProt Q0K478); assay: enoyl-CoA hydratase activity, absorbance decrease at 263 nm, Lineweaver-Burk analysis; type: biochemical, Cupriavidus necator H16; settings: 100 mM Tris-HCl buffer (pH 7.8)
Description: (§1) By homology search with a known R form-specific enoyl CoA hydratase, phaJ1 (SEQ ID NO: 2), phaJ2 (SEQ ID NO: 3), and phaJ3 were identified as a presumptive R form-specific enoyl CoA hydratase gene. Then, using the genomic DNA of C. necator as the template, phaJ1 was amplified by a PCR method with the oligonucleotides of the following sequence 19 and sequence 20 as the primers. Similarly, phaJ2 was amplified by a PCR method with the oligonucleotides of sequence 21 and sequence 22 as the primers. Furthermore, phaJ3 was amplified by a PCR method with the oligonucleotides of sequence 23 and sequence 24 as the primers. Using the KOD Plus (manufactured by TOYOBO) for PCR, a cycle comprising 20 seconds at 98° C., 15 seconds at 61° C. and 2 minutes at 68° C. was repeated for 30 cycles.
(§2) Each fragment of phaJ1, phaJ2 and phaJ3 that were amplified and cleaved with NdeI and XhoI in Example 16 was inserted into an expression plasmid pCOLDII (manufactured by Takara-Bio) cleaved with each of NdeI and XhoI. The plasmids obtained were designated as pCOLD-J1, pCOLD-J2 and pCOLD-J3. These expression plasmids have been constructed so as to produce recombinant protein in which a tag sequence (hereinafter referred to as His tag) comprising 6 histidine residues has been added to the amino terminal end. Using pCOLD-J1, pCOLD-J2 and pCOLD-J3, E. coli strain BL21 (DE3) (manufactured by Novagen) was transformed. Each transformant obtained was cultured in 100 mL of LB medium with 100 mg ampicillin at 37° C. for 4 hours, to which isopropyl-thiogalacto-pyranoside (IPTG) was added at a final concentration of 0.5 mM to induce expression, and further culcuted at 15° C. for 24 hours. The cells collected by centrifugation were resuspended in 20 mM sodium phosphate buffer (pH 7.4) containing 30 mM imidazole and 500 mM NaCl, sonic-disrupted and centrifuged to obtain soluble protein fractions.
(§3) This soluble protein fraction was filtered with a filter having a pore size of 0.22 μm. Then, this was subjected to the HisTrap FF crude column (1 ml) (manufactured by GE Healthcare) equalized in advance with 20 mM sodium phosphate buffer (pH 7.4) containing 30 mM imidazole and 500 mM NaCl so as to allow the His tag-carrying protein to be adsorbed. Subsequently, by linearly increasing the imidazole concentration from 30 mM to 500 mM, the adsorbed protein was eluted and recovered to prepare purified enzyme.
(§4) Proteins expressed from the three genes, phaJ1, phaJ2 and phaJ3, derived from C. necator are hereinafter referred to as PhaJ1, PhaJ2 and PhaJ3, respectively. For each of purified recombinant protein products produced in E. coli, the activity of enoyl-CoA hydratase when crotonyl-CoA (4 carbons), 2-hexenoyl-CoA (6 carbons) or 2-octenoyl-CoA (8 carbons) was used as the substrate was determined according to the method described in Non-patent document 4. Thus, the purified enzyme was added to 100 mM Tris-HCl buffer (pH 7.8) containing the substrate (a total volume of 400 μl), and reduction in absorbance at 263 nm was measured with a spectrophotometer. At this time, the measured values obtained by varying the substrate concentration were analyzed by the Lineweaver-Burk plot to calculate the Michaelis constant Km, and the maximum velocity Vmax.

[2] = test system: C. necator R form-specific enoyl-CoA hydratase PhaJ3 (phaJ3 gene), wild type, recombinant N-terminal His tag; assay: as above; type: biochemical, Cupriavidus necator H16; settings: 100 mM Tris-HCl buffer (pH 7.8); for Km: read-out: Michaelis constant Km
Description: as §1, §2, §3, §4

[3] = target: T1, C. necator R form-specific enoyl-CoA hydratase PhaJ1 (phaJ1 gene, H16_A1070, SEQ ID NO: 2), wild type, recombinant N-terminal His tag (Cupriavidus necator, UniProt Q0KCR0); assay: as above; type: biochemical, Cupriavidus necator H16; settings: 100 mM Tris-HCl buffer (pH 7.8)
T1 sequence (Q0KCR0 1-158): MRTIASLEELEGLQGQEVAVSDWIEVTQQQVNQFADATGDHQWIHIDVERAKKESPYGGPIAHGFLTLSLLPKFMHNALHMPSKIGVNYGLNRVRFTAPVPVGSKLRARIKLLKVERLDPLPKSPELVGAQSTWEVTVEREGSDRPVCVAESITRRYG
Description: as §1, §2, §3, §4

[4] = substrate: C/C=C/C(=O)SCCNC(=O)CCNC(=O)[C@H](O)C(C)(C)COP(=O)(O)OP(=O)(O)OC[C@H]1O[C@@H](n2cnc3c(N)ncnc32)[C@H](O)[C@@H]1OP(=O)(O)O; assay: as above; type: biochemical, Cupriavidus necator H16
Description: as §1, §2, §3, §4

[5] = substrate: CCC/C=C/C(=O)SCCNC(=O)CCNC(=O)[C@H](O)C(C)(C)COP(=O)(O)OP(=O)(O)OC[C@H]1O[C@@H](n2cnc3c(N)ncnc32)[C@H](O)[C@@H]1OP(=O)(O)O; assay: as above; type: biochemical, Cupriavidus necator H16
Description: as §1, §2, §3, §4

[6] = substrate: CCCCC/C=C/C(=O)SCCNC(=O)CCNC(=O)[C@H](O)C(C)(C)COP(=O)(O)OP(=O)(O)OC[C@H]1O[C@@H](n2cnc3c(N)ncnc32)[C@H](O)[C@@H]1OP(=O)(O)O; assay: as above; type: biochemical, Cupriavidus necator H16
Description: as §1, §2, §3, §4

[7] = stereoselectivity of the hydration reaction, coupled with PHA granule-mediated polymerization and DTNB; type: biochemical; settings: for absorbance at 412 nm: 0.2 mM crotonyl-CoA, 1 mM DTNB, 5 μl PHA granule fraction, 100 mM Tris-HCl pH 7.8, FIG. 4; for stereoselectivity of the hydration reaction: concluded from the CoA-SH release with PHA granule fraction and DTNB
Description: FIG. 4 The result of investigating the stereoselectivity of PhaJ1, PhaJ2 and PhaJ3 by the conjugation of the enoyl-CoA hydratase-mediated hydration reaction and the PHA granules-mediated polymerization reaction. (A) PhaJ1, (B) PhaJ2, and (C) PhaJ3; dark square: purified enzyme added, open triangle: no purified enzyme added.
In the above measurement of enoyl-CoA hydratase activity, no findings can be obtained on stereoselectivity at the addition of water to the double bond. Thus, the stereoselectivity of the hydration reaction by PhaJ1, PhaJ2 and PhaJ3 was investigated as follows. From the cells of C. necator that accumulated PHA, a water-insoluble PHA granule fraction can be prepared, but PHA synthetic synthase is bound to the surface of the PHA granules. This PHA synthase specifically polymerizes (R)-3-hydroxyacyl-CoA and releases CoA-SH. Thus, when both of the PHA granule fraction and 5,5′-dithiobis(2-nitrobenzoic acid) (DTNB) are present in the reaction solution for determining enoyl-CoA hydratase activity, COA-SH released together with the polymerization by PHA synthase reacts with DTNB to produce a yellow dye having a specific absorption at 412 nm, if the specificity of enoyl-CoA hydratase is (R)-form-specific. Conversely, when enoyl-CoA hydratase is (S)-form-specific, no yellow dye is produced.
Measurement was carried out according to the method described in Non-patent document 4. Thus, the PHA granule fraction was prepared from the cells of the C. necator wild type strain (the H16 strain) cultured for 36 hours in 100 ml of a medium containing fructose as a carbon source in a method described in Example 18. The cells were collected by centrifugation from the culture, and suspended in 3 ml of 50 mM Tris-HCl buffer (pH 7.5) followed by sonic-disruption. The supernatant obtained by low-speed centrifugation of the disruption liquid at 1,500×g, 5 min was further subjected to high-speed centrifugation at 15,000×g, 15 min. And the precipitate fraction was suspended in 3 ml of 50 mM Tris-HCl buffer (pH 7.5) to prepare a PHA granule fraction. Then, the purified enzyme was added to 100 mM Tris-HCl buffer (pH 7.8) containing 0.2 mM crotonyl-CoA, 1 mM DTNB and 5 μl PHA granule fraction (a total volume of 400 μl), and an increase in absorbance at 412 nm was measured.

[8] = other: PhaJ1, 100 mM Tris-HCl buffer (pH 7.8)
[9] = other: PhaJ2, 100 mM Tris-HCl buffer (pH 7.8)

C/C=C/C(=O)SCCNC(=O)CCNC(=O)[C@H](O)C(C)(C)COP(=O)(O)OP(=O)(O)OC[C@H]1O[C@@H](n2cnc3c(N)ncnc32)[C@H](O)[C@@H]1OP(=O)(O)O [Crotonyl-CoA (C4), crotonyl-CoA]
Maximum velocity Vmax [1]: 1.4 ± 0.1 × 10^2 U mg^−1
Maximum velocity Vmax [2]: 1.3 ± 0.2 × 10^1 U mg^−1
Km [2]: 178 ± 46 µM

CCC/C=C/C(=O)SCCNC(=O)CCNC(=O)[C@H](O)C(C)(C)COP(=O)(O)OP(=O)(O)OC[C@H]1O[C@@H](n2cnc3c(N)ncnc32)[C@H](O)[C@@H]1OP(=O)(O)O [2-hexenoyl-CoA (C6), 2-hexenoyl-CoA]
Maximum velocity Vmax [3]: 7.0 ± 0.5 × 10^2 U mg^−1
Maximum velocity Vmax [1]: 2.4 ± 0.3 × 10^3 U mg^−1
Maximum velocity Vmax [2]: 1.1 ± 0.1 × 10^2 U mg^−1
Km [2]: 110 ± 16 µM

CCCCC/C=C/C(=O)SCCNC(=O)CCNC(=O)[C@H](O)C(C)(C)COP(=O)(O)OP(=O)(O)OC[C@H]1O[C@@H](n2cnc3c(N)ncnc32)[C@H](O)[C@@H]1OP(=O)(O)O [2-oxtenoyl-CoA (C8), 2-octenoyl-CoA]
Maximum velocity Vmax [3]: 6.7 ± 0.7 × 10^2 U mg^−1
Maximum velocity Vmax [1]: 2.0 ± 0.1 × 10^3 U mg^−1
Maximum velocity Vmax [2]: 2.8 ± 0.5 × 10^2 U mg^−1
Km [2]: 38 ± 12 µM

B1: C. necator R form-specific enoyl-CoA hydratase PhaJ1 (phaJ1 gene, H16_A1070, SEQ ID NO: 2), wild type, recombinant N-terminal His tag (Cupriavidus necator H16) (protein)
chain: MRTIASLEELEGLQGQEVAVSDWIEVTQQQVNQFADATGDHQWIHIDVERAKKESPYGGPIAHGFLTLSLLPKFMHNALHMPSKIGVNYGLNRVRFTAPVPVGSKLRARIKLLKVERLDPLPKSPELVGAQSTWEVTVEREGSDRPVCVAESITRRYG
Km [4, 8]: 91 ± 5 µM
Km [5, 8]: 41 ± 7 µM
Km [6, 8]: 24 ± 5 µM

B2: PhaJ1: purified His-tagged recombinant protein expressed in E. coli from phaJ1 (SEQ ID NO: 2) of C. necator; (R)-form-specific enoyl-CoA hydratase (protein)
chain: MRTIASLEELEGLQGQEVAVSDWIEVTQQQVNQFADATGDHQWIHIDVERAKKESPYGGPIAHGFLTLSLLPKFMHNALHMPSKIGVNYGLNRVRFTAPVPVGSKLRARIKLLKVERLDPLPKSPELVGAQSTWEVTVEREGSDRPVCVAESITRRYG
modifications: His tag; Cupriavidus necator; Cupriavidus necator strain H16 (R)-form- specific enoyl-CoA hydratase (R-hydratase, phaJ1), H16_A1070
absorbance at 412 nm [7]: increase
stereoselectivity of the hydration reaction [7]: (R)-form-specific

B3: C. necator R form-specific enoyl-CoA hydratase PhaJ2 (phaJ2 gene, H16_B0397, SEQ ID NO: 3), wild type, recombinant N-terminal His tag (Cupriavidus necator H16) (protein)
chain: MKTYENIADLQPLVGEVIGTSEWLALDQARINTFADATGDHQWIHVDVERAKNGPFGAPIAHGFLTLSLLPAFTHSAYRIRNSSTGVNYGLDKVRFPAPVPVDSLLRAQFKLMSYEALENGGAQFKVEMMVERQGGSKPVCIAESILRRFP
Km [4, 9]: 311 ± 15 µM
Km [5, 9]: 77 ± 14 µM
Km [6, 9]: 23 ± 4 µM

B4: PhaJ2: purified His-tagged recombinant protein expressed in E. coli from phaJ2 (SEQ ID NO: 3) of C. necator; (R)-form-specific enoyl-CoA hydratase (protein)
chain: MKTYENIADLQPLVGEVIGTSEWLALDQARINTFADATGDHQWIHVDVERAKNGPFGAPIAHGFLTLSLLPAFTHSAYRIRNSSTGVNYGLDKVRFPAPVPVDSLLRAQFKLMSYEALENGGAQFKVEMMVERQGGSKPVCIAESILRRFP
modifications: His tag; Cupriavidus necator R-hydratase gene (phaJ2); Cupriavidus necator strain H16 (R)-form- specific enoyl-CoA hydratase (R-hydratase, phaJ2), H16_B0397
absorbance at 412 nm [7]: increase
stereoselectivity of the hydration reaction [7]: (R)-form-specific
